Patent US20120035219A1, “Compound for the Treatment of Tuberculosis” (ASTRAZENECA AB, priority 2009, published 2012)
≈ marks a conversion by molar mass, not a printed value.

Assays:
[1] = Pharmacokinetic parameters in rat; type: in vivo; details: plasma; Rat (20-25 mg/kg)
Method: (§1) PK analyses of the plasma concentration-time relationships were performed with WinNonLin software (or any other suitable software program). A noncompartmental analysis program was used to calculate the PK parameters, such as the maximum concentration of drug in plasma (Cmax), time to Cmax(tmax), elimination rate constant, elimination half-life, and AUC from time zero to infinity (AUC0-inf)
(§2) The compounds were dosed to animals at various doses (not exceeding 25 mg/kg) and the concentration of the compound at various time points was estimated.

[2] = Pharmacokinetic parameters in dog; type: in vivo; details: plasma; Dog (12.5-15 mg/kg)
Method: as §1, §2

Mtu H37Rv (ATCC 27294) [3] = assay: MIC testing, Microplate Alamar Blue Assay; type: cell-based; details: Mycobacterium tuberculosis
in vitro = details: mouse
[4] = Pharmacokinetic parameters in mouse; type: in vivo, BALB/c mice
Method: BALB/c mice (8-10 week old) were dosed with the compound in an appropriate vehicle at specified doses as a single dose at a dose volume of 10 mL/Kg. The dose was administered either orally or parentally. Blood samples were collected at various time points ranging from 0.08 h to 50 h post dosing and plasma harvested by acceptable methods like precipitation or extraction. The concentration of the compound in plasma was determined by standard analytical instruments like HPLC and/or LC-MS.
as §1, §2

[5] = tested on: Mtu in bone marrow derived macrophages from BALB/c mice; assay: Bone marrow derived macrophages (BMDM) intracellular infection model; type: cell-based, Mycobacterium tuberculosis; details: for BMDM (log Redn @ 8 μg/mL): 10 days drug exposure, CFU
Mtu H37Rv (ATCC 27294) [6] = assay: Minimum bactericidal concentration (MBC), plating on 7H10 agar; type: cell-based; details: Mycobacterium tuberculosis; concentration giving less than 50 colonies
[7] = tested on: Mtu (tubercle bacilli) lung infection; assay: In vivo dose-response, aerosol infection model, 4 wk efficacy; details: BALB/c mice, oral once daily, 6 days a week for 4 weeks
[8] = cited from earlier work
[9] = cited from earlier work; remark: listed apart in the source
[10] = compared with Linezolid; cited from earlier work
[11] = cited from earlier work; remark: listed apart in the source
M. tuberculosis = details: given orally or parenterally to experimental animals; cited from earlier work
mycobacteria = details: cited from earlier work
[12] = PPB (fraction free), mouse; details: plasma
[13] = tested on: slow growing mycobacteria; details: cited from earlier work
[14] = BALB/c, plasma, Mouse (10 mg/kg)
[15] = mouse, at the minimum effective dose

Compound	half-life [1]	half-life [2]	MIC (Mtu H37Rv (ATCC 27294) [3])	half-life [4, 14]	fAUC/MIC [4, 15]	BMDM (log Redn @ 8 μg/mL) [5]	MBC (Mtu H37Rv (ATCC 27294) [6])	Minimum Effective Dose in a 4 wk efficacy model [7]	antimycobacterial activities in the murine model (mycobacteria)	further results
O=C([C@@H](O)CO)N1CC=C(c2c(F)cc(N3C[C@H](COc4ccon4)OC3=O)cc2F)CC1 [AZD2563, (5R)-3-[4-[1-[(2S)-2,3-dihydroxypropanoyl]-3,6-dihydro-2H-pyridin-4-yl]-3,5-difluoro-phenyl]-5-(isoxazol-3-yloxymethyl)oxazolidin-2-one]	4 to 6 h	10 h	0.5 µg/mL (≈ 1.07 µM)	1.3 h	54.14	1.3 log	2 µg/mL (≈ 4.3 µM)	125 mg/kg	–	fraction unbound (in vitro): 0.18; AUC ([4]; BALB/c, mouse, in vivo): 150000 ng·h/mL; fAUC ([4]; BALB/c, mouse, in vivo): 27.07; AUC ([4]; BALB/c, mouse, in vivo, 10 mg/kg): 20300 ng·h/mL; bactericidal activity in the intracellular infection model (BMDM) as compared to Linezolid ([5]; compared to Linezolid): greater bactericidal activity
CC(=O)NC[C@H]1CN(c2ccc(-c3ccc(-c4nnnn4C)nc3)c(F)c2)C(=O)O1 [DA-7867]	–	–	–	–	–	–	–	–	–	tolerability in rat toxicology studies [8]: poorly tolerated; in vitro efficacy [9]: good in vitro; in vivo efficacy [10]: better in vivo efficacy than Linezolid
CC(=O)NC[C@H]1CN(c2ccc(C(C)=O)cc2)C(=O)O1 [DuP-721]	–	–	–	–	–	–	–	–	–	toxicity in animal models [11]: lethal toxicity; activity against M. tuberculosis (M. tuberculosis): good activity
CC(=O)NC[C@H]1CN(c2ccc(N3CCOCC3)c(F)c2)C(=O)O1 [Linezolid, N—[(S)-3-(3-Fluoro-4-morpholin-4-yl-phenyl)-2-oxo-oxazolidin-5-ylmethyl]-acetamide]	1.3 to 3 h	4 h	0.5 µg/mL (≈ 1.48 µM)	1 h	390.24	−0.05 log	4 µg/mL (≈ 11.9 µM)	250 mg/kg	promising antimycobacterial activities	AUC [1]: 41600 ng·h/mL; AUC [2]: 42000 ng·h/mL; fraction unbound [12]: 0.7; AUC ([4]; BALB/c, plasma, oral, mouse, at the minimum effective dose, read-out: AUC): 279000 ng·h/mL; AUC ([4]; BALB/c, plasma, Mouse (10 mg/kg), read-out: AUC): 7300 ng·h/mL; fAUC ([4]; mouse, at the minimum effective dose, AUC x fraction free): 195.12
CC(=O)NC[C@H]1CN(c2ccc(N3CCSCC3)c(F)c2)C(=O)O1 [PNU-100480]	–	–	–	–	–	–	–	–	promising antimycobacterial activities	–
CC(=O)NC[C@H]1CN(c2ccc(N3CCN(Cc4ccc([N+](=O)[O-])o4)CC3)c(F)c2)C(=O)O1 [RBx 7644]	–	–	–	–	–	–	–	–	–	antimycobacterial activity [13]: modest antimycobacterial activity
